In brackets after ≈: the same amount, converted by molar mass.
What was measured:
[1] = tested on: C. difficile NAP1/027 M7404; assay: MIC broth microdilution, C. difficile NAP1/027 M7404; type: cell-based, Clostridium difficile; conditions: NAP1/027 (footnote d: M7404), MtzS, 24 h, median of at least n = 4; for MIC: Clostridioides difficile, NAP1/027M7404
Protocol: (§1) All compounds were tested for activity against a set of anaerobic C. difficile bacteria (630 ATCC BAA-1382, NAP1/027 M7404, NAP1/027 ATCC BAA-1803, VPI10463 ATCC 43255, CD26A54_S and CD26A54_R) and representative ESKAPE pathogens S. aureus (MRSA ATCC 43300), E. coli (ATCC 25922), K. pneumoniae (ATCC 700603), A. baumannii (ATCC 19606) and P. aeruginosa (ATCC 27853) using a standard broth microdilution assay. Selected compounds were tested for activity against H. pylori strains (26695, and clinical isolates MtzS 13/25, MtzR 98/285 and MtzR 13/61) using agar plate dilution, and for antimicrobial activity against […] Gram-positive bacterial strains: Enterococcus faecalis (VanA clinical isolate), Enterococcus faecium (MDR VanA ATCC 51559), Streptococcus pneumoniae (MDR ATCC 700677), S. aureus (MRSA ATCC 43300, MRSA clinical isolate, MRSA/DRSA clinical isolate, GISA NARSA NRS 1, GISA NARSA NRS 17, VRSA NARSA VRS1, VRSA NARSA VRS4 and VRSA NARSA VRS10) using broth microdilution. C. difficile strains were grown at 37 °C in a COY anaerobic chamber (5% H2, 10% CO2, 85% N2). H. pylori strains were grown at 37 °C under a microaerobic atmosphere (5% O2, 10% CO2). All facultative anaerobic bacteria were grown at 37 °C with normal atmospheric oxygen levels. All experiments were performed in duplicate with metronidazole, vancomycin, linezolid or colistin as positive controls for relevant strains (see Table 1). Positive growth control of bacteria and DMSO as well as a negative control of only media were included for every plate. Full assay details are provided in the supplementary information.
(§2) C. difficile ATCC BAA-1382, ATCC BAA-1803, ATCC 43255 and M7404 heat shocked spore stocks (10 µL) were transferred into the anaerobic chamber and 10 µL streaked onto pre-reduced (at least 2.5 hr in anaerobic chamber) BHIS agar plates supplemented with 0.1% w/v sodium taurocholate (BHIS(TA)). Plates were incubated for 24 hours prior to assay to give colonies of size 1-3mm diameter with characteristic uneven borders.
(§3) The minimum inhibition concentration was determined according to the CLSI Methods with modifications in broth and inoculum for C. difficile according to Babakhani et al.^7,8 Briefly, compounds were prepared to 20X final concentration in 100% water, 60% DMSO and 40% water or 60% DMSO and 40% media. The compounds along with standard antibiotics were serially diluted two-fold across the wells of 96-well non-binding surface plates (Non binding surface, Corning). The plates were placed in the anaerobic chamber overnight to reduce. C. difficile bacteria from BHIS(TA) agar plates were cultured anaerobically in BHIS at 37 °C overnight. A sample of culture was then diluted 40-fold in BHIS broth and incubated at 37 °C for approximately 4.5 hrs. The resultant mid-log phase culture (OD600= 0.5-0.6) was diluted to the final concentration of ~1×10^6 CFU/mL, then 50 µL was added to each well of the compound-containing 96-well plates. This gave final cell concentration of 5×10^5 CFU/mL, final volume 100 µL and 3% maximum DMSO concentration. Compound concentration was typically from 64 to 0.03 µg/mL. An antibiotic standard was included on each 96 well plate as well as a positive growth control (no compound) and sterility control (no bacteria). All the plates were covered and incubated at 37 °C for 24 h. MICs were the lowest concentration showing no visible growth.

[2] = tested on: C. difficile 630 ATCC BAA-1382; assay: MIC broth microdilution, C. difficile 630; type: cell-based, Clostridium difficile; conditions: 24 h, median of at least n = 4; for MIC: Clostridioides difficile, ATCCBAA1382, MtzS
Protocol: as §1, §2, §3

`Cc1ncc([N+](=O)[O-])n1CCN=[N+]=[N-]` [Compound 3, 1-(2-azidoethyl)-2-methyl-5-nitro-1H-imidazole] was tested, and the “MIC C. difficile NAP1/027 (footnote d)” value [1] was 0.5 µg/mL (≈ 2.55 µM) and the “MIC C. difficile 630” value ([2]; MtzS) was 1 µg/mL (≈ 5.1 µM).
`Cc1ncc([N+](=O)[O-])n1CCn1cc(Cn2cccn2)nn1` [Compound 4g, 1-(2-(2-methyl-5-nitro-1H-imidazol-1-yl)ethyl)-4-((1H-pyrazol-1-yl)methyl)-1H-1,2,3-triazole] showed an MIC [1] of 1 µg/mL (≈ 3.31 µM) and an MIC [2] of 1 µg/mL (≈ 3.31 µM).
`Cc1ncc([N+](=O)[O-])n1CCn1cc(-c2cncnc2)nn1` [Compound 4i, 1-(2-(2-methyl-5-nitro-1H-imidazol-1-yl)ethyl)-4-(5-pyrimidinyl)-1H-1,2,3-triazole] gave an MIC [1] of 1 µg/mL (≈ 3.33 µM) and an MIC [2] of 1 µg/mL (≈ 3.33 µM).
For `Cc1ncc([N+](=O)[O-])n1CCn1cc(-c2ncccn2)nn1` [Compound 4j, 1-(2-(2-methyl-5-nitro-1H-imidazol-1-yl)ethyl)-4-(2-pyrimidinyl)-1H-1,2,3-triazole], the MIC [1] was 2 µg/mL (≈ 6.66 µM) and the MIC [2] was 2 µg/mL (≈ 6.66 µM).
With `Cc1ncc([N+](=O)[O-])n1CCn1cc(CN2CCS(=O)(=O)CC2)nn1` [Compound 4o, 1-(2-(2-methyl-5-nitro-1H-imidazol-1-yl)ethyl)-4-((1,1-dioxothiomorpholin-4-yl)methyl)-1H-1,2,3-triazole] the MIC [1] was > 64 µg/mL and the MIC [2] was > 64 µg/mL.
`Cc1ncc([N+](=O)[O-])n1CCn1cc(CCO)nn1` [Compound 4p, 1-(2-(2-methyl-5-nitro-1H-imidazol-1-yl)ethyl)-4-(2-hydroxyethyl)-1H-1,2,3-triazole] gave an MIC [1] of 8 µg/mL (≈ 30 µM) and an MIC [2] of 8 µg/mL (≈ 30 µM).
`Cc1ncc([N+](=O)[O-])n1CCn1cc(CO)nn1` [Compound 4q, 1-(2-(2-methyl-5-nitro-1H-imidazol-1-yl)ethyl)-4-(hydroxymethyl)-1H-1,2,3-triazole] was tested, and the MIC [1] was 16 µg/mL (≈ 63.4 µM) and the MIC [2] was 16 µg/mL (≈ 63.4 µM).
`Cc1ncc([N+](=O)[O-])n1CCn1cc(CCC(=O)O)nn1` [Compound 4r, sodium 1-(2-(2-methyl-5-nitro-1H-imidazol-1-yl)ethyl)-4-(carboxyethyl)-1H-1,2,3-triazole] was tested, and the MIC [1] was > 64 µg/mL and the MIC [2] was > 64 µg/mL.
`Cc1ncc([N+](=O)[O-])n1CCn1cc(C(=O)O)nn1` [Compound 4s, 1-(2-(2-methyl-5-nitro-1H-imidazol-1-yl)ethyl)-4-(carboxy)-1H-1,2,3-triazole] was tested, and the MIC [1] was 64 µg/mL (≈ 240 µM) and the MIC [2] was 64 µg/mL (≈ 240 µM).
With `Cc1ncc([N+](=O)[O-])n1CCn1cc(CN)nn1.O=C(O)C(F)(F)F` [Compound 4t, 1-(2-(2-methyl-5-nitro-1H-imidazol-1-yl)ethyl)-4-(aminomethyl)-1H-1,2,3-triazole trifluoroacetate salt] the MIC [1] was > 64 µg/mL and the MIC [2] was > 64 µg/mL.

From PMC4550478, “Metronidazole-triazole conjugates: Activity against Clostridium difficile and parasites” (European Journal of Medicinal Chemistry, 2015)
